Experimental data published in ChEMBL document CHEMBL1681659, “Discovery of novel positive allosteric modulators of the metabotropic glutamate receptor 5 (mGlu5)” (Bioorg Med Chem Lett, 2011).

What was measured:
[1] = Intrinsic clearance in rat liver microsome; format: ADME; details: liver microsomes
[2] = Chemical stability of the compound assessed as half life at pH 1; format: physicochemical; details: buffer
[3] = Chemical stability assessed as compound remaining after 1 hr by photolysis assay; format: physicochemical; details: read-out: Stability
[4] = Intrinsic clearance in human liver microsome; format: ADME; details: liver microsomes
[5] = Chemical stability of the compound assessed as half life at pH 10; format: physicochemical; details: buffer

## O=C1CCOc2nc(C#Cc3ccccc3)ccc21
[1]
  microsomal CLint: 95 µL/min/mg
[2]
  half-life: 278 h
[3]
  remaining at 1 h: 0%
[4]
  microsomal CLint: 120 µL/min/mg
[5]
  half-life: 24 h
